# According to patent publication US20220402925A1, “COMPOUNDS AND METHODS FOR THE TREATMENT OF CYSTIC FIBROSIS” (Flatley Discovery Lab, LLC, priority 2019, published 2022):
# Target: T1, F508del CFTR (Homo sapiens, UniProt P13569, DEL508-508)
# T1 construct: Primary CF airway epithelial cells were obtained from the UNC Cystic Fibrosis Tissue Procurement and Cell Culture Core; host or cells: primary CF airway epithelial cells
# Assay: Equivalent current assay in primary CF airway epithelial cells (Corrector Activity, NAUC normalized to 3 μM VX809)
# Format: cell-based
# Conditions: NAUC as % of positive control (VX-809)
# Summary of the method: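 Readout is NAUC: current area from forskolin/potentiator addition until CFTR-172, minus vehicle, relative to 3 μM VX809 (=1.0). Cells were primary CF epithelia at air-liquid interface ≥4 weeks, given basolateral compound for 24 h at 37° C; median of n≥4 replicates, sigmoid fit with nH fixed at 1.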
# T1 sequence (P13569 with tags, fused parts or gaps DEL508-508): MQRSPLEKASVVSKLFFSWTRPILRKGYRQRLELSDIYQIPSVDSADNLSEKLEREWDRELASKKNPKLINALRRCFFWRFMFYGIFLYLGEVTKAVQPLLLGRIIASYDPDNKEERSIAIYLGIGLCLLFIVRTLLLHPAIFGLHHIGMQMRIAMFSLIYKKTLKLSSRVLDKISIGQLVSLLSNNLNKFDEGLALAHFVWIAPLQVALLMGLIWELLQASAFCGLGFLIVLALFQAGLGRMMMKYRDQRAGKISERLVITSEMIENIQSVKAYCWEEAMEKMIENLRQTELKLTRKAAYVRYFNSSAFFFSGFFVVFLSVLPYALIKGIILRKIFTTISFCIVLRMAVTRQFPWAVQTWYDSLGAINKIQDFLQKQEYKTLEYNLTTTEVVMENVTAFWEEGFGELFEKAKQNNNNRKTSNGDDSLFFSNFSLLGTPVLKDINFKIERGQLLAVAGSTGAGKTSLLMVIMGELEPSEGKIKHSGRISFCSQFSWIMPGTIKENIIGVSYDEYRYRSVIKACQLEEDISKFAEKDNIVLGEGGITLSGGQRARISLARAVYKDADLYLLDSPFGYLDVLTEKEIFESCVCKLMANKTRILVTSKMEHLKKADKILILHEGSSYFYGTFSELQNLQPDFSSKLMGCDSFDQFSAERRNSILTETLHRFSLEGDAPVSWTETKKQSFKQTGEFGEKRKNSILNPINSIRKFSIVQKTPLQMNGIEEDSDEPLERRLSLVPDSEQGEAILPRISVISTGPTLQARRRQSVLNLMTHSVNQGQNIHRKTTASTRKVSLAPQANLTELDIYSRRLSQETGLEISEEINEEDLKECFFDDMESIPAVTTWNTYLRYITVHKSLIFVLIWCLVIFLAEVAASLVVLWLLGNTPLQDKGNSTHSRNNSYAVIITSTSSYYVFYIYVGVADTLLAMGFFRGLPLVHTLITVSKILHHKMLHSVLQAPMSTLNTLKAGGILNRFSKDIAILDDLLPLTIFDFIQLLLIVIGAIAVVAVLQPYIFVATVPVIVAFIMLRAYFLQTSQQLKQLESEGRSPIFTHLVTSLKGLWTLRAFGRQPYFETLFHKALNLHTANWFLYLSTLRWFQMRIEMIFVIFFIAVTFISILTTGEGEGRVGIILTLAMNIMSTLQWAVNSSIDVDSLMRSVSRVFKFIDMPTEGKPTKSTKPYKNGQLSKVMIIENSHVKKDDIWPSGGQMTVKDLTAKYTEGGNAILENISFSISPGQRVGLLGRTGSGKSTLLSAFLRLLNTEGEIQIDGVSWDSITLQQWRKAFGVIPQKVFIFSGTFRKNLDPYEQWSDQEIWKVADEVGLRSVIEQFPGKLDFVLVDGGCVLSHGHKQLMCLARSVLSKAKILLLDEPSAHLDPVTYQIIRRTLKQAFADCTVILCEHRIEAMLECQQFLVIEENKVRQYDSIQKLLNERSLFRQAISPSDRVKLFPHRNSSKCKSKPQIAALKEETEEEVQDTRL
row,Corr Activity (NAUC),Compound
1,++ (NAUC 70-40% of positive control),CCN(C(=O)Cn1nc(-c2cc(Cl)cc(Cl)c2)c2occc2c1=O)c1ccc2c(c1)OC(F)(F)O2 [Example 174]
2,++ (NAUC 70-40% of positive control),N#Cc1cc(-c2nn(CC(=O)N(c3ccc4c(c3)OC(F)(F)O4)C3CC3)c(=O)c3nc[nH]c23)ccc1N1CCCCC1 [Example 491]
3,+ (NAUC<40% of positive control),O=C(Cn1nc(-c2cc(O)cc(OC(F)(F)F)c2)c2[nH]cnc2c1=O)N(c1ccc2c(c1)OC(F)(F)O2)C1CC1 [Example 407]
4,++ (NAUC 70-40% of positive control),CCN(C(=O)Cn1nc(-c2cccc(Cl)c2)c2c(c1=O)CCC2)c1ccc2nc(C)oc2c1 [Example 49]
5,+++ (NAUC>70% of positive control),CCN(C(=O)Cn1nc(-c2cc(F)cc(F)c2)c2oc(C)cc2c1=O)c1ccc2c(c1)OC(F)(F)O2 [Example 74]
6,+++ (NAUC>70% of positive control),Cc1cc(C#N)cc(-c2nn(CC(=O)N(C)c3ccc4c(c3)OC(F)(F)O4)c(=O)c3ccoc23)c1 [Example 86]
7,+++ (NAUC>70% of positive control),Cc1cc2c(cc1N(C)C(=O)Cn1nc(-c3cc(Cl)cc(C#N)c3)c3occc3c1=O)OC(F)(F)O2 [Example 168]
8,+++ (NAUC>70% of positive control),CCN(C(=O)Cn1nc(-c2cc(F)cc(C#N)c2)c2oc(C)cc2c1=O)c1ccc2c(c1)OC(F)(F)O2 [Example 76]
9,+ (NAUC<40% of positive control),CCN(C(=O)Cn1nc(-c2ccc3c(ccn3C)c2)c2[nH]cnc2c1=O)c1ccc2c(c1)OC(F)(F)O2 [Example 290]
10,+++ (NAUC>70% of positive control),CN(C(=O)Cn1nc(-c2cc(C#N)cc(C(F)F)c2)c2occc2c1=O)c1ccc2c(c1F)OC(F)(F)O2 [Example 101]
11,+++ (NAUC>70% of positive control),CCN(C(=O)Cn1nc(-c2cccc(C#N)c2)c2oc(C)cc2c1=O)c1ccc2c(c1)OC(F)(F)O2 [Example 69]
12,+++ (NAUC>70% of positive control),CCN(C(=O)Cn1nc(-c2cc(F)cc(OC)c2)c2[nH]cnc2c1=O)c1ccc2c(c1)OC(F)(F)O2 [Example 261]
13,+++ (NAUC>70% of positive control),CCN(C(=O)Cn1nc(-c2cc(Cl)cc(C#N)c2)c2oc(C3CC3)cc2c1=O)c1ccc2c(c1)OC(F)(F)O2 [Example 224]
14,++ (NAUC 70-40% of positive control),CCN(C(=O)Cn1nc(-c2cc(F)cc(OCC(C)C)c2)c2[nH]cnc2c1=O)c1ccc2c(c1)OC(F)(F)O2 [Example 264]
15,+++ (NAUC>70% of positive control),CCN(C(=O)Cn1nc(-c2ccc3cc(OC)ccc3c2)c2[nH]cnc2c1=O)c1ccc2c(c1)OC(F)(F)O2 [Example 289]
16,+ (NAUC<40% of positive control),CCN(C(=O)Cn1nc(-c2ccc(Cl)c(OC)c2)c2[nH]cnc2c1=O)c1ccc2c(c1)OC(F)(F)O2 [Example 329]
17,+++ (NAUC>70% of positive control),"CN(C(=O)Cn1nc(-c2cccc(Cl)c2)c2oc(C(C)(C)O)cc2c1=O)c1ccc2c(c1)OC(F)(F)O2 [Example 184, 2-(7-(3-chlorophenyl)-2-(2-hydroxypropan-2-yl)-4-oxofuro[2,3-d]pyridazin-5(4H)-yl)-N-(2,2-difluorobenzo[d][1,3]dioxol-5-yl)-N-methylacetamide]"
18,+++ (NAUC>70% of positive control),Cc1cc(C#N)cc(-c2nn(CC(=O)N(C)c3ccc4c(c3)OC(F)(F)O4)c(=O)c3nc[nH]c23)c1 [Example 247]
19,+++ (NAUC>70% of positive control),Cc1c(N(C)C(=O)Cn2nc(-c3cccc(C#N)c3)c3occc3c2=O)ccc2c1OC(F)(F)O2 [Example 53]
20,+++ (NAUC>70% of positive control),CCN(C(=O)Cn1nc(-c2cc(F)cc(C#N)c2)c2occc2c1=O)c1cc2c(cc1C)OC(F)(F)O2 [Example 167]
21,++ (NAUC 70-40% of positive control),CCN(C(=O)Cn1nc(-c2cccc(C#N)c2)c2oc(C(=O)NC3(C)CC3)cc2c1=O)c1ccc2c(c1)OC(F)(F)O2 [Example 206]
22,++ (NAUC 70-40% of positive control),Cc1nc2ccc(N(C)C(=O)Cn3nc(-c4cccc(F)c4)c4oc(C(=O)NC(C)C)cc4c3=O)cc2o1 [Example 155]
23,++ (NAUC 70-40% of positive control),Cc1cc(C#N)cc(-c2nn(CC(=O)N(C)c3cc4c(cc3C)OC(F)(F)O4)c(=O)c3cc(C(=O)NC(C)(C)C)oc23)c1 [Example 134]
24,+++ (NAUC>70% of positive control),CN(C(=O)Cn1nc(-c2cccc(Cl)c2)c2oc(C(F)F)cc2c1=O)c1ccc2c(c1)OC(F)(F)O2 [Example 185]
25,+++ (NAUC>70% of positive control),CCN(C(=O)Cn1nc(-c2cccc(C#N)c2)c2occc2c1=O)c1ccc2c(c1C)OC(F)(F)O2 [Example 54]
26,+++ (NAUC>70% of positive control),CN(C(=O)Cn1nc(-c2cccc(C#N)c2)c2oc(C(=O)NC(C)(C)C)cc2c1=O)c1ccc2c(c1F)OC(F)(F)O2 [Example 148]

row,Corr Activity (NAUC),Compound
1,++ (NAUC 70-40% of positive control),CCN(C(=O)Cn1nc(-c2cccc(Cl)c2)c2cn[nH]c2c1=O)c1ccc2c(c1)OC(F)(F)O2 [Example 496]
2,+ (NAUC<40% of positive control),COc1cc(OC(F)(F)F)cc(-c2nn(CC(=O)N(c3ccc4c(c3)OC(F)(F)O4)C3CC3)c(=O)c3nc[nH]c23)c1 [Example 397]
3,+ (NAUC<40% of positive control),COc1cc(OC)cc(-c2nn(CC(=O)N(c3ccc4c(c3)OC(F)(F)O4)C3CC3)c(=O)c3nc[nH]c23)c1 [Example 381]
4,+++ (NAUC>70% of positive control),Cc1c(N(C)C(=O)Cn2nc(-c3cc(Cl)cc(C#N)c3)c3oc(C(=O)NC(C)(C)C)cc3c2=O)ccc2c1OC(F)(F)O2 [Example 141]
5,+ (NAUC<40% of positive control),CCN(C(=O)Cn1nc(-c2ccc(CS(C)(=O)=O)c(Cl)c2)c2[nH]cnc2c1=O)c1ccc2c(c1)OC(F)(F)O2 [Example 363]
6,+++ (NAUC>70% of positive control),CCN(C(=O)Cn1nc(-c2cc(Cl)cc(Cl)c2)c2[nH]cnc2c1=O)c1ccc2c(c1)OC(F)(F)O2 [Example 254]
7,+++ (NAUC>70% of positive control),Cc1nc2ccc(N(C)C(=O)Cn3nc(-c4cccc(Cl)c4)c4oc(C5CC5)cc4c3=O)cc2o1 [Example 218]
8,++ (NAUC 70-40% of positive control),CN(C(=O)Cn1nc(-c2cccc(OC(F)(F)F)c2)c2oc(C(=O)NC(C)(C)C)cc2c1=O)c1ccc2c(c1)OC(F)(F)O2 [Example 125]
9,+++ (NAUC>70% of positive control),CCN(C(=O)Cn1nc(-c2cccc(C#N)c2)c2oc(CN3CCCC3)cc2c1=O)c1ccc2c(c1)OC(F)(F)O2 [Example 203]
10,+++ (NAUC>70% of positive control),O=C(Cn1nc(-c2cccc(F)c2)c2[nH]cnc2c1=O)N1CCCc2c1ccc1c2OC(F)(F)O1 [Example 373]
11,+++ (NAUC>70% of positive control),CN(C(=O)Cn1nc(-c2cccc(F)c2)c2occc2c1=O)c1ccc2c(c1F)OC(F)(F)O2 [Example 108]
12,+++ (NAUC>70% of positive control),CN(C(=O)Cn1nc(-c2cccc(C#N)c2)c2oc(C(C)(C)O)cc2c1=O)c1ccc2c(c1)OC(F)(F)O2 [Example 204]
13,+++ (NAUC>70% of positive control),CCN(C(=O)Cn1nc(-c2cccc(Cl)c2)c2sccc2c1=O)c1ccc2nc(C)oc2c1 [Example 4]
14,+++ (NAUC>70% of positive control),COc1cc(C#N)cc(-c2nn(CC(=O)N3CCCc4c3ccc3c4OC(F)(F)O3)c(=O)c3ccoc23)c1 [Example 105]
15,+ (NAUC<40% of positive control),CN(C(=O)Cn1nc(-c2cccc(C#N)c2)c2oc(CN3CCOCC3)cc2c1=O)c1ccc2c(c1)OC(F)(F)O2 [Example 199]
16,+++ (NAUC>70% of positive control),CCN(C(=O)Cn1nc(-c2cc(F)cc(OC)c2)c2occc2c1=O)c1ccc2c(c1)OC(F)(F)O2 [Example 47]
17,++ (NAUC 70-40% of positive control),N#Cc1cc(OC(F)(F)F)cc(-c2nn(CC(=O)N(c3ccc4c(c3)OC(F)(F)O4)C3CC3)c(=O)c3nc[nH]c23)c1 [Example 408]
18,+++ (NAUC>70% of positive control),CCN(C(=O)Cn1nc(-c2cc(Cl)cc(C#N)c2)c2oc(C(=O)NC(C)(C)C)cc2c1=O)c1cc2c(cc1C)OC(F)(F)O2 [Example 137]
19,+++ (NAUC>70% of positive control),CCN(C(=O)Cn1nc(-c2cc(F)cc(C#N)c2)c2oc(C(=O)NC(C)(C)C)cc2c1=O)c1cc2c(cc1C)OC(F)(F)O2 [Example 136]
20,+++ (NAUC>70% of positive control),CCN(C(=O)Cn1nc(-c2cc(C)cc(C#N)c2)c2oc(C(=O)NC(C)(C)C(F)(F)F)cc2c1=O)c1cc2c(cc1C)OC(F)(F)O2 [Example 151]
21,+++ (NAUC>70% of positive control),CCN(C(=O)Cn1nc(-c2cc(F)cc(Cl)c2)c2[nH]cnc2c1=O)c1ccc2c(c1)OC(F)(F)O2 [Example 255]
22,+++ (NAUC>70% of positive control),Cc1c(N(C)C(=O)Cn2nc(-c3cc(Cl)cc(C#N)c3)c3occc3c2=O)ccc2c1OC(F)(F)O2 [Example 171]
23,+ (NAUC<40% of positive control),CCN(C(=O)Cn1nc(-c2cc(Cl)cc(OC)c2)c2oc(C3CCC3)cc2c1=O)c1ccc2c(c1)OC(F)(F)O2 [Example 240]
24,+++ (NAUC>70% of positive control),CCN(C(=O)Cn1nc(-c2cc(Cl)cc(N3CCCC3)c2)c2[nH]cnc2c1=O)c1ccc2c(c1)OC(F)(F)O2 [Example 277]
25,++ (NAUC 70-40% of positive control),Cc1nc2ccc(N(C)C(=O)Cn3nc(-c4cccc(C#N)c4)c4oc(C(=O)NC(C)C)cc4c3=O)cc2o1 [Example 156]
